Experimental findings from US20210214375A1 (LUNDBECK LA JOLLA RESEARCH CENTER, INC., priority 2017, published 2021) are described below.

Assay type in all cases: biochemical
The target in one test is T1, ABHD6 (Mus musculus, UniProt Q8R2Y0).
T1 construct: Brain; from tissue; host or cells: mouse brain proteome
T1 sequence (Q8R2Y0 1-336): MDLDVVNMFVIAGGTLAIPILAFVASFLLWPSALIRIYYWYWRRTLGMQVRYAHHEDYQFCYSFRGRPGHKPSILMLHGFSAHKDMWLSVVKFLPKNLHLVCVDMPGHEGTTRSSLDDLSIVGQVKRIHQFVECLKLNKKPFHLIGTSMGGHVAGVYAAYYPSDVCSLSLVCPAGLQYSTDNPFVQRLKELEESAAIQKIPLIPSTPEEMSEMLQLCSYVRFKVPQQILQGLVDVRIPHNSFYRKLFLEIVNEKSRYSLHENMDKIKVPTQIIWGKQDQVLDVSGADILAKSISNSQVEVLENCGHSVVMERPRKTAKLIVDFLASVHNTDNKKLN
In words: In vitro competitive activity-based protein profiling, mouse brain proteome, ABHD6. The following applies: mouse. As for the experimental part:
[Worded in the source for another target; this target is reported under the same test.] (§1) Proteomes (human prefrontal cortex or cell membrane fractions) (50 μL, 1.0 mg/mL total protein concentration) were preincubated with varying concentrations of inhibitors at 37° C. After 30 min, FP—Rh or HT-01 (1.0 μL, 50 μM in DMSO) was added and the mixture was incubated for another 30 min at room temperature. Reactions were quenched with SDS loading buffer (15 μL-4×) and run on SDS-PAGE.

The target of another test is T2, MGLL (Mus musculus, UniProt O35678).
T2 construct: Brain; from tissue; host or cells: mouse brain proteome
T2 sequence (O35678 1-303): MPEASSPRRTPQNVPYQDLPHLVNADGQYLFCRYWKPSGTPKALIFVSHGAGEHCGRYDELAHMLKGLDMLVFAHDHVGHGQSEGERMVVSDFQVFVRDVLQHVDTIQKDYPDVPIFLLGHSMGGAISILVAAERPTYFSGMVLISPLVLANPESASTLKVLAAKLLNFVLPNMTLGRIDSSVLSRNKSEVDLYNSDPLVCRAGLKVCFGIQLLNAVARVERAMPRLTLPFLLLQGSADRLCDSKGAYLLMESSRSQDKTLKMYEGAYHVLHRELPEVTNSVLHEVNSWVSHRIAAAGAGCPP
Briefly: In vitro competitive activity-based protein profiling, mouse brain proteome. As for the experimental part: [Worded in the source for another species; this species is reported under the same test.] as §1

The next test has as its target T3, MAGL (Homo sapiens, UniProt Q99685).
T3 construct: Proteomes (human prefrontal cortex or cell membrane fractions); from tissue
T3 sequence (Q99685 1-303): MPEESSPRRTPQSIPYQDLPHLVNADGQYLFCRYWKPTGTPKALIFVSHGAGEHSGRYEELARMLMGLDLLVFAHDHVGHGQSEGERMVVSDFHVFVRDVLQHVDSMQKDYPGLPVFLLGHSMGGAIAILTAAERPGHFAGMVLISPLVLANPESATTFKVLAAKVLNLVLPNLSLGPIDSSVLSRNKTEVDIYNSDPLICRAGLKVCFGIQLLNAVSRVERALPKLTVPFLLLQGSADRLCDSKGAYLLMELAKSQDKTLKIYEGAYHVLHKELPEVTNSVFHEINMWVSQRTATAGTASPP
Briefly: In vitro competitive activity-based protein profiling (gel-based, FP-Rh or HT-01 probe). The protocol: Compounds are tested to assess their MAGL and serine hydrolase activity using the following in vitro and in vivo assays.
as §1

Setting [1] is: PC3 proteome, read-out: IC50 MGLL PC3 (Human).
[2] abbreviates: PFC (prefrontal cortex) proteome.

Like-named read-outs stand apart in the source and are kept apart here.

The term IC50 denotes the concentration at which inhibition is half-maximal. For the compound `O=C(OC(C(F)(F)F)C(F)(F)F)N1CCC2(CCCN2C(=O)c2ccc(Cl)cc2)CC1` [Example 13, 1,1,1,3,3,3-Hexafluoropropan-2-yl 1-(4-chlorobenzoyl)-1,8-diazaspiro[4.5]decane-8-carboxylate], the IC50 at ABHD6 is 100 to 1000 nM; at MGLL, < 100 nM.
In the same order, the values of `CC(=O)N1CCCc2cccc(CN3CC4(CCN(C(=O)OC(C(F)(F)F)C(F)(F)F)CC4)C3)c21` [Example 15, 1,1,1,3,3,3-Hexafluoropropan-2-yl 2-((1-acetyl-1,2,3,4-tetrahydroquinolin-8-yl)methyl)-2,7-diazaspiro[3.5]nonane-7-carboxylate] are 100 to 1000 nM and < 100 nM.
In the case of `CCN1CCCc2cccc(CN3CC4(CCN(C(=O)OC(C(F)(F)F)C(F)(F)F)CC4)C3)c21` [Example 16, 1,1,1,3,3,3-Hexafluoropropan-2-yl 2-((1-ethyl-1,2,3,4-tetrahydroquinolin-8-yl)methyl)-2,7-diazaspiro[3.5]nonane-7-carboxylate], the half-inhibitory concentration (IC50) on ABHD6 was 100 to 1000 nM; at MGLL, < 100 nM.
For `CCN1CCCc2cccc(CN3CCC4(CC3)CN(C(=O)OC(C(F)(F)F)C(F)(F)F)C4)c21` [Example 31, 1,1,1,3,3,3-Hexafluoropropan-2-yl 7-((1-ethyl-1,2,3,4-tetrahydroquinolin-8-yl)methyl)-2,7-diazaspiro[3.5]nonane-2-carboxylate] the same measures were 100 to 1000 nM and > 1000 nM.
Take `O=C(OC(C(F)(F)F)C(F)(F)F)N1CC2(CCN(Cc3c(N4CC5COCC5C4)cccc3C(F)(F)F)CC2)C1` (stereo not drawn) [Example 33]: the 50% inhibitory concentration (IC50) on ABHD6 and at MGLL was 100 to 1000 nM in each case.
Consider `O=C(OC(C(F)(F)F)C(F)(F)F)N1CCC2(CC1)CN(Cc1ccc(Cl)cc1N1CCCC1)C2` [Example 34], for which the IC50 on ABHD6 is 100 to 1000 nM; at MGLL it was < 100 nM.
Turning to `O=C(OC(C(F)(F)F)C(F)(F)F)N1CCC2(CC1)CN(Cc1ccc(C(F)(F)F)cc1N1CCCCC1)C2` [Example 35], the IC50 at ABHD6 is 100 to 1000 nM; on MGLL, < 100 nM.
Regarding `O=C(OC(C(F)(F)F)C(F)(F)F)N1CCC2(CC1)CN(Cc1ccc(C(F)(F)F)cc1N1CCOCC1)C2` [Example 36, 1,1,1,3,3,3-Hexafluoropropan-2-yl 2-(2-morpholino-4-(trifluoromethyl)benzyl)-2,7-diazaspiro[3.5]nonane-7-carboxylate], the figures for the IC50 on ABHD6 and at MGLL were 100 to 1000 nM and < 100 nM, respectively.
Take `O=C(O)C1CCN(c2cc(F)ccc2CN2CC3(CCN(C(=O)OC(C(F)(F)F)C(F)(F)F)CC3)C2)CC1` [Example 123, 1-(5-Fluoro-2-((7-(((1,1,1,3,3,3-hexafluoropropan-2-yl)oxy)carbonyl)-2,7-diazaspiro[3.5]nonan-2-yl)methyl)phenyl) piperidine-4-carboxylic acid]: the IC50 on MAGL (setting [1]) lay within 100 to 1000 nM.
The same measure, in the same setting: the value for `O=C(O)c1ccc(CN2CC3(CCN(C(=O)OC(C(F)(F)F)C(F)(F)F)CC3)C2)cc1C(F)(F)F` [Example 131, 4-((7-(((1,1,1,3,3,3-Hexafluoropropan-2-yl)oxy)carbonyl)-2,7-diazaspiro[3.5]nonan-2-yl)methyl)-2-(trifluoromethyl) benzoic acid] was 100 to 1000 nM.
Regarding `CN(Cc1ccc(Cl)cc1N1CCC(C(=O)O)CC1)C1(C)CCN(C(=O)OC(C(F)(F)F)C(F)(F)F)CC1` [Example 135, 1-(5-Chloro-2-(((1-(((1,1,1,3,3,3-hexafluoropropan-2-yl)oxy)carbonyl)-4-methylpiperidin-4-yl)(methyl)amino)methyl)phenyl) piperidine-4-carboxylic acid], the “% Inh MGLL PFC (Human, μM)” value at MAGL (setting [2]) is on record as “### (### is ≥ 75%)”.
For `CN(Cc1ccc(C(F)(F)F)cc1OCC(=O)O)C1(C)CCN(C(=O)OC(C(F)(F)F)C(F)(F)F)CC1` [Example 136, 2-(2-(((1-(((1,1,1,3,3,3-Hexafluoropropan-2-yl)oxy)carbonyl)-4-methylpiperidin-4-yl)(methyl)amino)methyl)-5-(trifluoromethyl)phenoxy)acetic acid], the IC50 on MAGL (setting [1]) was < 100 nM. Besides, on MAGL (setting [2]), the “% Inh MGLL PFC (Human, μM)” value is reported as “### (### is ≥ 75%)”.
Regarding `CN(Cc1cc(C(F)(F)F)cc(C2(C(=O)O)CCCC2)c1)C1(C)CCN(C(=O)OC(C(F)(F)F)C(F)(F)F)CC1` [Example 138, 1-(3-{[(1-{[(1,1,1,3,3,3-Hexafluoropropan-2-yl)oxy]carbonyl}-4-methylpiperidin-4-yl)(methyl)amino]methyl}-5-(trifluoromethyl)phenyl)cyclopentane-1-carboxylic acid], the “% Inh MGLL PFC (Human, μM)” value at MAGL (setting [2]) is on record as “### (### is ≥ 75%)”. Besides, the IC50 at MAGL (PFC (prefrontal cortex) proteome, read-out: IC50 MGLL PFC (Human)) was < 100 nM.
For `CC(C)(C#Cc1cc(CN2CCCC23CCN(C(=O)OC(C(F)(F)F)C(F)(F)F)CC3)cc(C(F)(F)F)c1)C(=O)O` [Example 140, 4-{3-[(8-{[(1,1,1,3,3,3-Hexafluoropropan-2-yl)oxy]carbonyl}-1,8-dazaspiro[4.5]decan-1-yl)methyl]-5-(trifluoromethyl)phenyl]-2,2-dimethylbut-3-ynoic acid], the half-maximal inhibitory concentration (IC50) on MAGL (setting [1]) was < 100 nM.
On to `CN(Cc1cccc(F)c1C1(C(=O)O)CCCC1)C1(C)CCN(C(=O)OC(C(F)(F)F)C(F)(F)F)CC1` [Example 144, 1-(2-Fluoro-6-{[(1-{[(1,1,1,3,3,3-hexafluoropropan-2-yl)oxy]carbonyl}-4-methylpiperidin-4-yl)(methyl)amino]methyl}phenyl) cyclopentane-1-carboxylic acid], for which, at MAGL (setting [1]), the IC50 was < 100 nM. In addition, the “% Inh MGLL PFC (Human, μM)” value at MAGL (setting [2]) is “### (### is ≥ 75%)”.
For `CC(C)(C#Cc1ccccc1CN1CCCC12CCN(C(=O)OC(C(F)(F)F)C(F)(F)F)CC2)C(=O)O` [Example 145, 4-{2-[(8-{[(1,1,1,3,3,3-Hexafluoropropan-2-yl)oxy]carbonyl}-1,8-diazaspiro[4.5]decan-1-yl)methyl]phenyl]-2,2-dimethylbut-3-ynoic acid] the same measures were 100 to 1000 nM and “### (### is ≥ 75%)”.
As to `CC1(OCc2ccc(Cl)cc2C2(C(=O)O)CCCC2)CCN(C(=O)OC(C(F)(F)F)C(F)(F)F)CC1` [Example 146, 1-(5-Chloro-2-{[(1-{[(1,1,1,3,3,3-hexafluoropropan-2-yl)oxy]carbonyl}-4-methylpiperidin-4-yl)oxy]methyl}phenyl) cyclopentane-1-carboxylic acid], the IC50 on MAGL (setting [1]) was < 100 nM. The “% Inh MGLL PFC (Human, μM)” value on MAGL (setting [2]) is listed as “### (### is ≥ 75%)”.
On to `CN(Cc1ccc(C(F)(F)F)cc1N1CCC(N2CCC[C@H]2C(=O)O)CC1)C1(C)CCN(C(=O)OC(C(F)(F)F)C(F)(F)F)CC1` [Example 163, (1-(2-(((1-(((1,1,1,3,3,3-Hexafluoropropan-2-yl)oxy)carbonyl)-4-methylpiperidin-4-yl)(methyl)amino)methyl)-5-(trifluoromethyl)phenyl)piperidin-4-yl)-L-proline], for which, on MAGL (PC3 proteome), the “% Inh MGLL PC3 (Human, μM)” value is on record as “### (### is ≥ 75%)”. Besides, the “% Inh MGLL Brain (Mouse, μM)” value at MGLL was “### (### is ≥ 75%)”.
As for `O=C(O)C1CCN(c2cc(CN3CCC4(CC3)CCN(C(=O)OC(C(F)(F)F)C(F)(F)F)C4)ccc2C(F)(F)F)CC1` [Example 221], the 50% inhibitory concentration (IC50) at MAGL (setting [1]) is < 100 nM.
Same read-out and setting: the value for `O=C(O)C1CCN(c2cc(S(F)(F)(F)(F)F)ccc2CN2CCC3(CC2)CCN(C(=O)OC(C(F)(F)F)C(F)(F)F)C3)CC1` [Example 222, 1-(2-((2-(((1,1,1,3,3,3-Hexafluoropropan-2-yl)oxy)carbonyl)-2,8-diazaspiro[4.5]decan-8-yl)methyl)-5-(pentafluoro-l6-sulfaneyl)phenyl) piperidine-4-carboxylic acid] was 100 to 1000 nM; that for `O=C(O)C1CCN(c2cc(CN3CCC4(CC3)CCN(C(=O)OC(C(F)(F)F)C(F)(F)F)C4)cc(S(F)(F)(F)(F)F)c2)CC1` [Example 226, 1-(3-((2-(((1,1,1,3,3,3-Hexafluoropropan-2-yl)oxy)carbonyl)-2,8-diazaspiro[4.5]decan-8-yl)methyl)-5-(pentafluoro-l6-sulfaneyl)phenyl) piperidine-4-carboxylic acid] was < 100 nM; that for `CC1(OCc2cc(N3CCC(C(=O)O)CC3)cc(C(F)(F)F)c2)CCN(C(=O)OC(C(F)(F)F)C(F)(F)F)CC1` [Example 227] was < 100 nM.
